Measured values: US12473305B2, “Pyrazole boronic acid compound, pharmaceutical composition containing same, and uses thereof” (BEIJING SONGRUN PHARMACEUTICAL TECHNOLOGY CO., LTD., priority 2020, dated 2025)

What was measured:
[1] = system: liver cancer cell line HepG2; assay: CellTiter-Glo tumor cell proliferation, HepG2; type: cell-based, human; settings: Homo sapiens, HepG2, 72 h
Method: The effect of compounds on tumor cell proliferation was detected by CellTiter-Glo method. Human melanoma cell line A375, non-small cell lung cancer cell line A549, human lung adenocarcinoma cell line H1299, colorectal cancer cell line HCT116, liver cancer cell line HepG2 and gastric cancer cell line MGC80-3 were cultured in vitro. The cells were collected after growing to the logarithmic growth phase, centrifuged at 1000 rpm for 5 min, and suspended in an appropriate amount of medium after discarding the supernatant, and the cell concentration was adjusted to 2×10^4/mL. The cell suspension was inoculated onto the 384-well cell culture plate, with 50 μL per well. After being cultured in a cell incubator (37° C., 5% CO2) for 24 h, 5 μL of drug diluted by the cell culture medium was added into each well for the treatment group. Each drug was provided in triplicate. After 72 h incubation in the incubator, 20 μL of CellTiter-Glo was added into each well, and the relative luminescence unit (RLU) was measured with Multimode Microplate Reader Varioskan Flash (Thermo Scientific, USA) after placed at 37° C. for 20 min, and compared with the RLU of the control group. SigmaPlot 10.0 software was used to calculate the inhibition rate and IC50 value.

[2] = Maximum tolerated dose in mice; type: in vivo; settings: for body weight (M ± S.E.): in g (unit assumed)
Method: Healthy non-tumor bearing female NOD/SCID mice (purchased from Sipeifu Biotechnology Co., Ltd.) were selected for the Maximum Tolerated Dose (MTD) test. Compound 39 was administered to NOD/SCID mice directly through a single tail vein injection, and the vehicle (0.3 mL DMSO, 0.27 mL Tween-80, 2.43 mL normal saline) was used as the control group. According to the dose of compound 39, the administration group was divided into three groups: low-dose group (10 mg/kg), medium-dose group (20 mg/kg), and high-dose group (30 mg/kg), with seven mice in each group.

[3] = Pharmacokinetic test in rats (IV and PO); type: in vivo, male SD rats
Method: This experiment includes the PO group and IV group, with three animals in each group. For the PO group, about 0.25 mL of whole blood was collected from orbital venous plexus before administration, and 15 min, 30 min, 1 h, 2 h, 4 h, 7 h and 24 h after administration, and for the IV group, about 0.25 mL of whole blood was collected from orbital venous plexus before administration, and 5 min, 15 min, 30 min, 1 h, 2 h, 4 h, 7 h and 24 h after administration, which were placed in heparin anticoagulant tube. After the blood collection, the blood collection tubes containing anticoagulant agent was inverted several times to fully mix, and placed on wet ice before centrifugation. Within 60 minutes after blood collection, it was centrifuged at 8000 rpm under 2 to 8° C. for 10 minutes to separate red blood cells and obtain plasma samples. The plasma sample was transferred to a cryogenic tube and stored at −75±15° C. until analysis. 50 μL of the plasma sample was taken and added with 5 μL of acetonitrile:water (1:1, v/v), and added with 200 μL of 0.1% formic acid-acetonitrile, centrifuged (12000 rpm, 15 min); the supernatant was diluted in 1:1 with ultrapure water. The plasma drug concentration was analyzed by using LC-MS/MS method. Microsoft EXCEL was used to statistically describe the experimental data with mean, deviation % and standard deviation (SD). The pharmacokinetic parameters were calculated with WinNonlin 8.1 software. The following pharmacokinetic parameters were calculated: CL (clearance), Vd (apparent volume of distribution), T1/2 (elimination half-life time), Cmax (peak concentration), Tmax (peak time), AUC (area under the blood concentration-time curve), and F % (bioavailability).

PC3 = assay: MTT antitumor spectrum, PC3; type: cell-based; settings: Homo sapiens, PC-3, 72 h
Method: (§1) The activity of compound 30 was evaluated by MTT method against seven tumor cell models, A549, A375, HCT116, MDA-MB-231, HepG2, PC3 and MCF-7. All cells used in the study were prepared at a concentration of 3.5×10^3 cells/mL, and each […] cell suspension was inoculated on a 96-well microtiter plate for 24 hours (37° C., 5% CO2). Then different concentrations of compound 30 were added, incubated for 72 hours; and for the control group, equivalent concentrations of DMSO (final concentration 0.5%) were added. The number of viable cells was measured by MTT (3-(4,5-dimethylthiazol-2-yl)-diphenyl tetrazolium bromide) method, and the OD value at 492/620 nm was recorded. The IC50 value was calculated by Prism-Graphpad software based on the results of triplicate experiments.

MDA-MB-231 = assay: MTT antitumor spectrum, MDA-MB-231; type: cell-based; settings: Homo sapiens, 72 h
Method: as §1

[4] = male, SD, rat, IV 1 mg/kg, single, plasma
[5] = male, SD, rat, PO 10 mg/kg, single, plasma

Structure (SMILES): CC(C)C[C@H](NC(=O)Cn1nc(-c2cccc(OCCN3CCN(c4ccccc4)CC3)c2)cc1-c1ccccc1)B(O)O.Cl [Compound 39, (R)-(3-methyl-1-(2-(5-phenyl-3-(3-(2-(4-phenylpiperazin-1-yl)ethoxy)phenyl)-1H-pyrazol-1-yl)acetamido)butyl)boronic acid hydrochloride]
- IC50 [1]: 0.054 µM
- body weight (M ± S.E.) ([2]; High-dose 30 mg/kg single tail vein injection, Day 0 (day before administration)): 24.2 ± 0.5
- body weight (M ± S.E.) ([2]; High-dose 30 mg/kg single tail vein injection, Day 1): 24.0 ± 0.5
- body weight (M ± S.E.) ([2]; High-dose 30 mg/kg single tail vein injection, Day 2): 22.4 ± 0.6
- body weight (M ± S.E.) ([2]; High-dose 30 mg/kg single tail vein injection, Day 3): 22.5 ± 0.6
- body weight (M ± S.E.) ([2]; High-dose 30 mg/kg single tail vein injection, Day 4): 22.7 ± 0.7
- body weight (M ± S.E.) ([2]; High-dose 30 mg/kg single tail vein injection, Day 5): 22.9 ± 0.6
- body weight (M ± S.E.) ([2]; High-dose 30 mg/kg single tail vein injection, Day 6): 22.5 ± 0.6
- body weight (M ± S.E.) ([2]; High-dose 30 mg/kg single tail vein injection, Day 7): 23.1 ± 0.4
- body weight (M ± S.E.) ([2]; Low-dose 10 mg/kg single tail vein injection, Day 0 (day before administration)): 24.2 ± 0.8
- body weight (M ± S.E.) ([2]; Low-dose 10 mg/kg single tail vein injection, Day 1): 24.5 ± 0.8
- body weight (M ± S.E.) ([2]; Low-dose 10 mg/kg single tail vein injection, Day 2): 23.3 ± 1.1
- body weight (M ± S.E.) ([2]; Low-dose 10 mg/kg single tail vein injection, Day 3): 23.4 ± 1.0
- body weight (M ± S.E.) ([2]; Low-dose 10 mg/kg single tail vein injection, Day 4): 23.7 ± 1.1
- body weight (M ± S.E.) ([2]; Low-dose 10 mg/kg single tail vein injection, Day 5): 24.1 ± 1.0
- body weight (M ± S.E.) ([2]; Low-dose 10 mg/kg single tail vein injection, Day 6): 24.4 ± 0.8
- body weight (M ± S.E.) ([2]; Low-dose 10 mg/kg single tail vein injection, Day 7): 24.7 ± 0.7
- body weight (M ± S.E.) ([2]; Medium-dose 20 mg/kg single tail vein injection, Day 0 (day before administration)): 24.7 ± 0.2
- body weight (M ± S.E.) ([2]; Medium-dose 20 mg/kg single tail vein injection, Day 1): 24.1 ± 0.5
- body weight (M ± S.E.) ([2]; Medium-dose 20 mg/kg single tail vein injection, Day 2): 22.8 ± 0.4
- body weight (M ± S.E.) ([2]; Medium-dose 20 mg/kg single tail vein injection, Day 3): 22.7 ± 0.4
- body weight (M ± S.E.) ([2]; Medium-dose 20 mg/kg single tail vein injection, Day 4): 22.8 ± 0.5
- body weight (M ± S.E.) ([2]; Medium-dose 20 mg/kg single tail vein injection, Day 5): 23.3 ± 0.6
- body weight (M ± S.E.) ([2]; Medium-dose 20 mg/kg single tail vein injection, Day 6): 23.7 ± 0.7
- body weight (M ± S.E.) ([2]; Medium-dose 20 mg/kg single tail vein injection, Day 7): 24.0 ± 0.7
- average body weight change of mice ([2]; doses of 30 mg/kg or less, single tail vein injection): not more than 5%
- MTD at 7 days ([2]; female, NOD/SCID, mouse, in vivo, single tail vein injection, 7 days observation, read-out: dose safe to be administered (maximum tolerated dose test)): ≤ 30 mg/kg
- clearance (in words) ([3]; IV 1 mg/kg): medium clearance
- CL_obs ([3]; IV 1 mg/kg, single, plasma, hydrochloride, 1 mg/kg): 21.0 ± 3.4 mL/min/kg
- distribution in vivo (in words) ([3]; IV 1 mg/kg, Vd higher than total liquid volume of SD rats): widely distributed in vivo
- absorption (in words) ([3]; PO 10 mg/kg): rapid absorption
- bioavailability ([3]; male, SD, rat, plasma, PO 10 mg/kg vs IV 1 mg/kg, read-out: F (bioavailability)): 2.42 ± 1.91%
- AUC(0-inf) [3, 4]: 807 ± 123 ng·h/mL
- AUC(0-t) [3, 4]: 767 ± 117 ng·h/mL
- C0 [3, 4]: 846 ± 183 ng/mL
- Cmax [3, 4]: 671 ± 124 ng/mL
- Tmax [3, 4]: 4.98 min
- Vd [3, 4]: 13.9 ± 2.8 L/kg
- half-life [3, 4]: 458 ± 18 min
- AUC(0-inf) [3, 5]: 191 ± 147 ng·h/mL
- AUC(0-t) [3, 5]: 186 ± 147 ng·h/mL
- Cmax [3, 5]: 74.8 ± 82 ng/mL
- Tmax [3, 5]: 19.8 ± 8.4 min
- half-life [3, 5]: 97.8 ± 21.6 min

Structure (SMILES): CC(C)C[C@H](NC(=O)Cn1nc(-c2cccc(OCCN3CCOCC3)c2)cc1-c1ccccc1)B(O)O.Cl [Compound 30, (R)-(3-methyl-1-(2-(3-(3-(2-morpholinoethoxy)phenyl)-5-phenyl-1H-pyrazol-1-yl)-acetamido)butyl)boronic acid hydrochloride]
- IC50 (PC3): 0.82 µM
- IC50 (MDA-MB-231): 0.94 µM
